Reference: patent publication US20210238162A1, “CHEMICAL COMPOUNDS” (GlaxoSmithKline Intellectual Property Development Limited, priority 2015, published 2021)
Where a name gives a salt, the structure may show the parent alone. Read-outs that look alike come from different tables or passages of the source.

Target: T1, haematopoietic prostaglandin D synthase (H-PGDS) (Homo sapiens, UniProt O60760)
T1 construct: Full length human H-PGDS cDNA (Invitrogen Ultimate ORF IOH13026) was amplified by PCR; made in house; host or cells: E. coli BL21 (DE3*), vector pET22b+
Assay: H-PGDS RapidFire High Throughput Mass Spectrometry Assay
Format: biochemical
How it was run: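 PGH2 (~10 μM burst) generated in situ from arachidonic acid by FLAG-tagged human COX-2 (Sf9-expressed), then converted to PGD2 by full-length human His-tagged H-PGDS from E. coli. PGD2 and PGF2α (substrate surrogate) quantified by RapidFire SPE-triple quadrupole MS; percent conversion calculated.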

[1] = H-PGDS RapidFire MS assay, mean pIC50, read-out: Potency Range (mean pIC50) (converted)
[2] = in at least one experimental run, read-out: H-PGDS pIC50 value (converted)

T1 sequence (O60760 whole entry): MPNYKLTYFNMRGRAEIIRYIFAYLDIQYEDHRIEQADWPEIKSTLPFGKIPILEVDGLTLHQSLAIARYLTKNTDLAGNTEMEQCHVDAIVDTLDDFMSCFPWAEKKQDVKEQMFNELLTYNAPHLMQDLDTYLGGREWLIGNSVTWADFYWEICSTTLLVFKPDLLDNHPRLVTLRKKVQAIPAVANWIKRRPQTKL

| SMILES | IC50 [1] [nM] | IC50 [2] [nM] |
| --- | --- | --- |
| CCOC(=O)c1cnc(N[C@H]2C[C@H](NC(=O)c3cnc4cc(OC(F)F)c(F)cc4c3)C2)o1 [Example 83, Ethyl 2-((trans-3-(7-(difluoromethoxy)-6-fluoroquinoline-3-carboxamido)cyclobutyl)amino)oxazole-5-carboxylate] | 10 to 79.4 |  |
| O=C(N[C@H]1CC[C@H](NCC(F)F)CC1)c1cnc2cc(OC(F)F)c(F)cc2c1 [Example 49, N-(trans-4-((2,2-Difluoroethyl)amino)cyclohexyl)-7-(difluoromethoxy)-6-fluoroquinoline-3-carboxamide] | 10 to 79.4 |  |
| CC(C)CN1CC[C@H](NC(=O)c2cnc3cc(OC(F)F)c(F)cc3c2)C1=O [Example 50, (S)-7-(Difluoromethoxy)-6-fluoro-N-(1-isobutyl-2-oxopyrrolidin-3-yl)quinoline-3-carboxamide] | 10 to 79.4 |  |
| N#Cc1cc2cc(C(=O)NC3CC(=O)Nc4ccccc43)cnc2cc1C1CC1 (centres unmarked) [Example 26, 6-Cyano-7-cyclopropyl-N-(2-oxo-1,2,3,4-tetrahydroquinolin-4-yl)quinoline-3-carboxamide] | < 10 |  |
| O=C(NC1CCN(CC(F)F)CC1)c1cnc2cc(OC(F)F)c(F)cc2c1 [Example 65, N-(1-(2,2-Difluoroethyl)piperidin-4-yl)-7-(difluoromethoxy)-6-fluoroquinoline-3-carboxamide] | 10 to 79.4 |  |
| CC(C)(O)[C@H]1C[C@H](NC(=O)c2cnc3cc(OC(F)F)c(Cl)cc3c2)C1 [Example 118, 6-Chloro-7-(difluoromethoxy)-N-(trans-3-(2-hydroxypropan-2-yl)cyclobutyl)quinoline-3-carboxamide] | < 10 | 10 |
| O=C(NC1CCN(CC(F)(F)F)CC1)c1cnc2cc(OC(F)F)c(F)cc2c1 [Example 58, 7-(Difluoromethoxy)-6-fluoro-N-(1-(2,2,2-trifluoroethyl)piperidin-4-yl)quinoline-3-carboxamide] | 10 to 79.4 |  |
| CC(C)(O)[C@H]1CC[C@H](NC(=O)c2cnc3cc(F)ccc3c2)CC1 [Example 193, 7-Fluoro-N-(trans-4-(2-hydroxypropan-2-yl)cyclohexyl)quinoline-3-carboxamide] |  | 2000 |
| COc1cc2ncc(C(=O)NC3CCN(c4nnnn4C)CC3)cc2cc1C#N [Example 114, 6-Cyano-7-methoxy-N-(1-(1-methyl-1H-tetrazol-5-yl)piperidin-4-yl)quinoline-3-carboxamide] | 100 to 1000 |  |
| O=C(N[C@H]1CC[C@H](C2(O)CC2)CC1)c1cnc2cc(OC(F)F)c(Cl)cc2c1 [Example 121, 6-Chloro-7-(difluoromethoxy)-N-(trans-4-(1-hydroxycyclopropyl)cyclohexyl)quinoline-3-carboxamide] | < 10 |  |
| O=C(N[C@H]1CC[C@H](N[C@H](CO)C(F)(F)F)CC1)c1cnc2cc(OC(F)F)c(Cl)cc2c1 [Example 135, 6-Chloro-7-(difluoromethoxy)-N-(trans-4-(((R)-1,1,1-trifluoro-3-hydroxypropan-2-yl)amino)cyclohexyl)quinoline-3-carboxamide] | < 10 |  |
| CC(N[C@H]1CC[C@H](NC(=O)c2cnc3cc(OC(F)F)c(F)cc3c2)CC1)C(F)(F)F (stereo partly drawn) [Example 57, 7-(Difluoromethoxy)-6-fluoro-N-(trans-4-((1,1,1-trifluoropropan-2-yl)amino)cyclohexyl)quinoline-3-carboxamide] | 10 to 79.4 |  |
| N#Cc1cc2cc(C(=O)N[C@H]3CCNC3=O)cnc2cc1C1CC1 [Example 25, (S)-6-Cyano-7-cyclopropyl-N-(2-oxopyrrolidin-3-yl)quinoline-3-carboxamide hydrochloride] | 10 to 79.4 | 25.1 |
| O=C(NC1CCC(N2CCOCC2)CC1)c1cnc2cc(OC(F)F)c(F)cc2c1 (centres unmarked) [Example 68, 7-(Difluoromethoxy)-6-fluoro-N-(4-morpholinocyclohexyl)quinoline-3-carboxamide trifluoroacetic Acid Salt] | 10 to 79.4 |  |
| O=C(Nc1nccs1)c1cnc2cc(OC(F)F)ccc2c1 [Example 10, 7-(Difluoromethoxy)-N-(thiazol-2-yl)quinoline-3-carboxamide] | 10 to 79.4 |  |
| Cc1cc2cc(C(=O)N[C@H]3CC[C@H](C(C)(C)O)CC3)cnc2c(Cl)c1OC(F)F [Example 228, 8-Chloro-7-(difluoromethoxy)-N-((trans)-4-(2-hydroxypropan-2-yl)cyclohexyl)-6-methylquinoline-3-carboxamide] | 10 to 79.4 |  |
| O=C(N[C@H]1CC[C@@H](N2CC(F)C2)CC1)c1cnc2cc(OC(F)F)c(F)cc2c1 [Example 89, 7-(Difluoromethoxy)-6-fluoro-N-(cis-4-(3-fluoroazetidin-1-yl)cyclohexyl)quinoline-3-carboxamide] | 100 to 1000 |  |
| CN(C)C(=O)[C@@H]1CC[C@@H](NC(=O)c2cnc3cc(OC(F)F)c(Cl)cc3c2)CO1 (racemic) [Example 126, Racemic 6-Chloro-7-(difluoromethoxy)-N-((3r,6s)-6-(dimethylcarbamoyl)tetrahydro-2H-pyran-3-yl)quinoline-3-carboxamide] | 10 to 79.4 |  |

| SMILES | IC50 [1] [nM] | IC50 [2] [nM] |
| --- | --- | --- |
| COc1ccc2cc(C(=O)Nc3nccs3)cnc2c1F [Example 47, 8-Fluoro-7-methoxy-N-(thiazol-2-yl)quinoline-3-carboxamide hydrochloride] | 10 to 79.4 |  |
| CC(O)CO[C@H]1CC[C@H](NC(=O)c2cnc3cc(OC(F)F)ccc3c2)CC1 (stereo partly drawn) [Example 16, 7-(Difluoromethoxy)-N-(trans-4-(2-hvdroxypropoxy)cyclohexyl)quinoline-3-carboxamide] | 10 to 79.4 |  |
| O=C(NC1CCc2ccccc2NC1=O)c1cnc2cc(OC(F)F)c(Cl)cc2c1 (centres unmarked) [Example 237, 6-Chloro-7-(difluoromethoxy)-N-(2-oxo-2,3,4,5-tetrahydro-1H-benzo[b]azepin-3-yl)quinoline-3-carboxamide] | < 10 |  |
| Cn1nnnc1N1CCC(NC(=O)c2cnc3cc(C4CC4)c(Cl)cc3c2)CC1 [Example 34, 6-Chloro-7-cyclopropyl-N-(1-(1-methyl-1H-tetrazol-5-yl)piperidin-4-yl)quinoline-3-carboxamide] | < 10 |  |
| O=C(N[C@H]1CC[C@H](N[C@@H](CO)C(F)(F)F)CC1)c1cnc2cc(OC(F)F)c(Br)cc2c1 [Example 153, 6-Bromo-7-(difluoromethoxy)-N-(trans-4-(((S)-1,1,1-trifluoro-3-hydroxypropan-2-yl)amino)cyclohexyl)quinoline-3-carboxamide] | < 10 |  |
| CC1CN(c2cc3ncc(C(=O)N[C@@H]4C(=O)NC[C@H]4C)cc3cc2F)C1 [Example 207, 6-Fluoro-N-((3S,4R)-4-methyl-2-oxopyrrolidin-3-yl)-7-(3-methylazetidin-1-yl)quinoline-3-carboxamide] | 100 to 1000 |  |
| CC(C)(O)[C@H]1CC[C@H](NC(=O)c2cnc3cc(OC(F)F)c(F)cc3c2)CC1 [Example 51, 7-(Difluoromethoxy)-6-fluoro-N-(trans-4-(2-hydroxypropan-2-yl)cyclohexyl)quinoline-3-carboxamide] | 10 to 79.4 |  |
| CC(N[C@H]1CC[C@H](NC(=O)c2cnc3cc(OC(F)F)c(Cl)cc3c2)CC1)C(F)F (mixture of isomers) [Example 125, 6-Chloro-7-(difluoromethoxy)-N-(trans-4-((1,1-difluoropropan-2-yl)amino)cyclohexyl)quinoline-3-carboxamide] | < 10 |  |
| CC(C)(O)[C@H]1CC[C@H](NC(=O)c2cnc3cc(C4CC4(F)F)c(Cl)cc3c2)CC1 (stereo partly drawn) [Example 222, 6-Chloro-7-(2,2-difluorocyclopropyl)-N-((trans)-4-(2-hydroxypropan-2-yl)cyclohexyl)quinoline-3-carboxamide] | 10 to 79.4 | 63.1 |
| CC(C)(O)[C@H]1CC[C@H](NC(=O)c2cnc3cc(N4CC(F)C4)c(F)cc3c2)CC1 [Example 164, 6-Fluoro-7-(3-fluoroazetidin-1-yl)-N-(trans-4-(2-hydroxypropan-2-yl)cyclohexyl)quinoline-3-carboxamide] | < 10 |  |
| O=C(N[C@H]1CC[C@@](O)(C(F)F)CC1)c1cnc2cc(OC(F)F)c(Cl)cc2c1 [Example 234, 6-Chloro-7-(difluoromethoxy)-N-((1r,4r)-4-(difluoromethyl)-4-hydroxycyclohexyl)quinoline-3-carboxamide] | 10 to 79.4 |  |
| CC(C)(O)[C@H]1CC[C@H](NC(=O)c2cnc3c(Cl)c(OC(F)F)c(Cl)cc3c2)CC1 [Example 217, 6,8-Dichloro-7-(difluoromethoxy)-N-((trans)-4-(2-hydroxypropan-2-yl)cyclohexyl)quinoline-3-carboxamide] | < 10 |  |
| CC[C@]1(O)CC[C@H](NC(=O)c2cnc3cc(OC(F)F)c(F)cc3c2)CC1 [Example 81, 7-(Difluoromethoxy)-N-((1r,4r)-4-ethyl-4-hydroxycyclohexyl)-6-fluoroquinoline-3-carboxamide] | 10 to 79.4 |  |
| CC(C)N1CC[C@H](NC(=O)c2cnc3cc(OC(F)F)c(Cl)cc3c2)C1=O [Example 119, (S)-6-Chloro-7-(difluoromethoxy)-N-(1-isopropyl-2-oxopyrrolidin-3-yl)quinoline-3-carboxamide] | 10 to 79.4 |  |
| CC(C)(O)[C@H]1CC[C@H](NC(=O)c2cnc3cc(N=[N+]=[N-])c(Cl)cc3c2)CC1 [Example 168, 7-Azido-6-chloro-N-(trans-4-(2-hydroxypropan-2-yl)cyclohexyl)quinoline-3-carboxamide] | 10 to 79.4 |  |
| CSc1cc2ncc(C(=O)N[C@H]3CC[C@H](C(C)(C)O)CC3)cc2cc1F [Example 161, 6-Fluoro-N-(trans-4-(2-hydroxypropan-2-yl)cyclohexyl)-7-(methylthio)quinoline-3-carboxamide] | < 10 |  |
| C[C@H]1CCN1c1cc2ncc(C(=O)N[C@H]3CCNC3=O)cc2cc1Cl [Example 188, 6-Chloro-7-((S)-2-methylazetidin-1-yl)-N—((S)-2-oxopyrrolidin-3-yl)quinoline-3-carboxamide] | 10 to 79.4 |  |
